From the supplement of paper PMC10307832

Legend:
Assay in all cases: relative viability (nuclei count vs DMSO), 5 days (fraction); higher = more cells survive
[1] = compound: O=S(=O)(c1ccccc1)N(CC(F)(F)F)c1ccc(C(O)(C(F)(F)F)C(F)(F)F)cc1 + C[C@@H](Oc1cc(-c2cnn(C3CCNCC3)c2)cnc1N)c1c(Cl)ccc(F)c1Cl [Crizotinib] (partner 1 µM)
Method in brief: (§1)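 Relative viability is defined as nuclei in treated wells over nuclei in vehicle wells. Duplicate plates were run and medians reported. Lung cancer cell lines in 1536-well plates were dosed by pin tool one day after seeding, with one drug or with a fixed anchor-drug dose plus five library-drug doses (not always all listed) in √10 steps, and nuclei were counted after 5 days.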

[2] = compound: C1=CC2=C(C=CC(=C2)C=C3C(=O)NC(=NCC4=CC=CS4)S3)N=C1 [RO-3306] + Nc1nc2[nH]cc(CCc3ccc(C(=O)N[C@@H](CCC(=O)O)C(=O)O)cc3)c2c(=O)[nH]1 [Pemetrexed] (partner 0.2 µM)
Method in brief: as §1

[3] = compound: O=S(=O)(c1ccccc1)N(CC(F)(F)F)c1ccc(C(O)(C(F)(F)F)C(F)(F)F)cc1 + Nc1nc2[nH]cc(CCc3ccc(C(=O)N[C@@H](CCC(=O)O)C(=O)O)cc3)c2c(=O)[nH]1 [Pemetrexed] (partner 0.2 µM)
Method in brief: as §1

[4] = compound: O=S(=O)(c1ccccc1)N(CC(F)(F)F)c1ccc(C(O)(C(F)(F)F)C(F)(F)F)cc1 + O=C(CCCCCCC(=O)Nc1ccccc1)NO [Vorinostat] (partner 1 µM)
Method in brief: as §1

[5] = compound: O=S(=O)(c1ccccc1)N(CC(F)(F)F)c1ccc(C(O)(C(F)(F)F)C(F)(F)F)cc1 + NC(=O)Nc1cc(-c2cccc(F)c2)sc1C(=O)N[C@H]1CCCNC1 [AZD7762] (partner 0.2 µM)
Method in brief: as §1

[6] = compound: O=S(=O)(c1ccccc1)N(CC(F)(F)F)c1ccc(C(O)(C(F)(F)F)C(F)(F)F)cc1 + Nc1ncn([C@H]2C[C@H](O)[C@@H](CO)O2)c(=O)n1 [Decitabine] (partner 2 µM)
Method in brief: as §1

Cell Line	relative viability ([1]; first compound 0.8 µM)	relative viability ([1]; first compound 2.53 µM)	relative viability ([1]; first compound 8 µM)	relative viability ([2]; first compound 0.01 µM)	relative viability ([2]; first compound 0.03162 µM)	relative viability ([2]; first compound 0.1 µM)	relative viability ([2]; first compound 0.3162 µM)	relative viability ([2]; first compound 1 µM)	relative viability ([3]; first compound 0.8 µM)	relative viability ([3]; first compound 2.53 µM)	relative viability ([3]; first compound 8 µM)	relative viability ([4]; first compound 0.8 µM)	relative viability ([4]; first compound 2.53 µM)	relative viability ([4]; first compound 8 µM)	relative viability ([5]; first compound 0.8 µM)	relative viability ([5]; first compound 2.53 µM)	relative viability ([5]; first compound 8 µM)	relative viability ([6]; first compound 0.8 µM)	relative viability ([6]; first compound 2.53 µM)	relative viability ([6]; first compound 8 µM)
H3255	0.755	0.776	0.829	0.506	0.501	0.547	0.57	0.57	0.602	0.526	0.502	0.716	0.752	0.667	0.787	0.666	0.76	0.567	0.473	0.642
ABC-1	1.19	1.07	1.01	–	–	–	–	–	–	–	–	–	0.882	0.912	0.709	1.64	1.2	–	1.02	1.05
LXF-289	0.793	0.721	0.689	0.805	0.8	1.04	0.9	0.868	0.883	0.82	0.86	0.719	0.656	0.74	0.981	0.937	0.974	0.411	0.419	0.429
NCI-H1975	1.03	1.01	0.919	0.28	0.269	0.303	0.321	0.302	0.358	0.293	0.3	0.752	0.752	0.65	0.632	0.519	0.669	0.453	0.545	0.472
LCLC-97TM1	0.314	0.371	0.297	0.175	0.169	0.144	0.178	0.185	–	0.16	0.179	–	0.562	0.567	–	0.241	0.234	–	0.22	0.196
IA-LM	0.863	0.652	0.906	–	–	–	–	–	–	–	–	0.917	0.757	0.553	–	–	–	–	–	–
HCC-15	0.867	0.766	0.676	0.203	0.21	0.26	0.225	0.199	0.213	0.23	0.243	0.748	0.682	0.63	1.18	1.17	1.16	0.562	0.419	0.5
NCI-H647	1.52	1.23	0.906	0.177	0.157	0.153	0.174	0.167	0.0949	0.156	0.164	0.304	0.404	0.655	0.483	0.388	0.535	0.502	0.437	0.353
NCI-H1993	0.855	0.686	0.799	0.627	0.5	0.624	0.573	0.539	0.616	0.533	0.614	0.859	0.575	0.836	0.69	0.657	0.774	0.515	0.563	0.579
COR-L23	0.644	0.472	0.597	0.179	0.216	0.214	0.194	0.187	0.2	0.193	0.208	0.522	0.543	0.423	–	–	–	0.428	0.439	0.461
NCI-H1915	0.958	0.894	0.834	0.609	0.495	0.52	0.49	0.572	0.518	0.464	0.51	0.51	0.568	0.499	0.712	0.731	0.682	0.287	0.281	0.29
NCI-H1703	0.676	0.701	0.588	–	–	–	–	–	–	–	–	–	–	–	0.132	0.119	0.132	–	–	–
NCI-H727	0.832	0.844	0.646	–	–	–	–	–	–	–	–	1.18	0.853	1.03	0.549	0.604	0.526	0.922	0.963	0.913
LC-2-ad	0.478	0.498	0.443	0.291	0.26	0.278	0.278	0.27	0.274	0.286	0.244	0.734	0.657	0.602	0.89	0.779	0.702	0.825	0.803	0.709
NCI-H2009	0.981	0.888	0.824	1.11	1.12	1.05	0.988	1.01	1.01	0.941	0.824	0.707	0.614	0.648	–	–	–	0.366	0.372	0.369
A-427	0.929	0.793	0.872	0.942	0.902	0.966	0.937	0.607	0.939	0.937	1.05	0.85	0.803	0.812	0.879	0.734	0.695	0.526	0.509	0.551
SK-MES-1	1.02	1	0.903	1.14	1	0.981	0.968	0.938	1.12	1	0.824	1.09	1.18	0.915	–	–	–	0.375	0.337	0.366
NCI-H522	–	–	–	1.16	0.947	0.868	1.16	1.03	1.03	1.11	0.877	0.833	0.973	0.959	1.13	0.824	0.859	0.565	0.608	0.746
